Measurements as given in patent US6030823A, “D-aminoacylase” (Daicel Chemical Industries, Ltd., priority 1998, dated 2000).
Values joined by “and” are separate entries in the source; they are usually repeats but may differ in a detail not shown here. Equal entries are not always repeated. Where two headings read alike, the source gives them in different places. Blank lines part the entries; values can stand above or below the compound they belong to.

Key:
[1] = tested on: D-aminoacylase derived from Sebekia benihana IFO14309; type: biochemical
Protocol: (§1) The enzymatic reaction was performed in the same manner as in (1) except that the metal salts and enzyme inhibitors listed in Tables 10 and 11 (1 mM or 10 mM) were added to the reaction mixture.

[2] = tested on: D-aminoacylase derived from Sebekia benihana IFO14309; experiment: Influences of inhibitors on the activity of the enzyme; type: biochemical
Protocol: as §1

[3] = tested on: Sebekia benihana IFO14309; experiment: Induction of D-aminoacylase, experiment 3 (seed culture, 231 liquid medium, 0.05% inducer); type: cell-based; settings: for Activity / Specific activity: experiment 3, 20 mM N-acetyl-D-methionine, 30° C., 5 min; for Induction of the enzyme (in words): used as inducers (Table 3)
Protocol: Third, a seed culture was prepared by incubating the strain in test tubes, each containing 5.0 ml of PY liquid medium for 51 hours with shaking. The seed culture (0.4 ml) was then inoculated with a 2-ml Komagome pipette into test tubes, each containing 8.0 ml of 231 liquid medium (1.0% maltose; 0.2% N.Z.Amine, Type A; 0.1% yeast extract; 0.1% meat extract; pH 7.3) supplemented with 0.05% D-phenylalanine, 0.05% D-tryptophan, 0.05% D-valine, 0.05% L-phenylalanine, 0.05% L-tryptophan, or 0.05% L-valine as inducers, and cultivated for 48 hours with shaking (experiment 3).
(§2) From the culture broth obtained in experiments 1, 2, and 3, the cells were collected by centrifugation at 8000 rpm (7000×g) for 20 min with a refrigerated centrifuge (Hitachi Koki Co., Ltd.). The collected cells were washed with 50 mM Tris-HCl buffer (pH 7.5), collected again by centrifugation using the same centrifuge, then stored at -20° C.
(§3) The stored cells were suspended in 20 ml of 50 mM Tris-HCl buffer (pH 7.5) and were disrupted by sonication at 200 W for 15 min. The lysate was centrifuged at 15,000 rpm for 30 min with the above centrifuge, and the supernatant was obtained as a crude enzyme solution.
(§4) The enzymatic reaction was performed in 1.0 ml of a reaction system containing 20 mM N-acetyl-D-methionine, 50 mM Tris-HCl buffer (pH 7.5), 1 mM CoCl2, and 100 μl of the enzyme solution at 30° C. for 20 min (experiment 1), 10 min (experiment 2), and 5 min (experiment 3). The reaction was stopped by adding a TCA solution.

[4] = tested on: Sebekia benihana IFO14309; experiment: Induction of D-aminoacylase, experiment 2 (seed culture, PY liquid medium, 0.10% inducer); type: cell-based; settings: 20 mM N-acetyl-D-methionine, 30° C., 10 min
Protocol: Second, a seed culture was prepared by incubating the strain in test tubes, each containing 5.0 ml of PY liquid medium for 71 hours. Then, 0.4 ml of the seed culture was inoculated with a 2-ml Komagome pipette into test tubes, each containing 8.0 ml of PY liquid medium supplemented with 0.10% DL-glutamine, 0.10% DL-histidine, 0.10% DL-isoleucine, 0.10% DL-phenylalanine, 0.10% proline, 0.10% DL-threonine, 0.10% DL-tryptophan, or 0.10% DL-valine as inducers, and cultivated for 74 hours with shaking (experiment 2).
as §2, §3, §4

[5] = tested on: D-aminoacylase derived from Sebekia benihana IFO14309; experiment: Substrate specificity of the aminoacylase; type: biochemical; settings: 20 mM substrate, 50 mM Tris-HCl pH 7.5, 30° C., 5 min
Protocol: The substrate specificity of the aminoacylase was examined using N-acetyl-D-methionine, N-acetyl-D-alanine, N-acetyl-D-aspartic acid, N-acetyl-D-leucine, N-acetyl-D-phenylalanine, N-acetyl-D-tryptophan, N-acetyl-D-valine, N-acetyl-L-leucine, N-acetyl-L-methionine, and N-acetyl-L-valine as substrates. The enzyme activity was assayed as follows. A 0.050-ml aliquot of an enzyme solution was added to 0.950 ml of 20 mM N-acetyl-D(or L)-amino acid in 50 mM Tris-HCl buffer (pH 7.5) and incubated at 30° C. for 5 min. The reaction was then stopped by adding 0.50 ml of a TCA solution to the reaction mixture. The relative activity is shown in Table 5, taking the activity for N-acetyl-L-methionine as 100%.

[6] = tested on: Sebekia benihana IFO14309; experiment: Induction of D-aminoacylase, experiment 1 (PY liquid medium, 0.10% inducer); type: cell-based; settings: 20 mM N-acetyl-D-methionine, 30° C., 20 min
Protocol: First, Sebekia benihana IFO14309 was cultured with shaking for 74 hours in test tubes, each containing 8.0 ml of PY liquid medium (0.2% glycerol, 2.0% yeast extract, 2.0% polypeptone, pH 7.3) supplemented with 0.10% DL-leucine, 0.10% N-acetyl-DL-leucine, 0.10% DL-methionine, 0.10% N-acetyl-DL-methionine, DL-valine, or 0.10% N-acetyl-DL-valine as inducers (experiment 1).
as §2, §3, §4

[7] = column 1 mM, PCMB was used at 0.01 mM
[8] = column 10 mM, PCMB was used at 0.1 mM

SMILES: [Cl][Ni][Cl] [NiCl2]
Effect of metal ions on the enzyme (in words) [1]: inhibited
D-Met ([1]; metal salt 1 mM): 0.53 mM
Residual activity ([1]; metal salt 1 mM): 44%
D-Met ([1]; metal salt 10 mM): 0.035 mM
Residual activity ([1]; metal salt 10 mM): 2.9%

SMILES: [Cl][Hg][Cl] [HgCl2]
Effect of metal ions on the enzyme (in words) [1]: inhibited
D-Met ([1]; metal salt 1 mM): 0.38 mM
Residual activity ([1]; metal salt 1 mM): 32%
D-Met ([1]; metal salt 10 mM): 0 mM
Residual activity ([1]; metal salt 10 mM): 0%

SMILES: O=C(O)c1cc[c]([Hg][Cl])cc1 [PCMB, p-chloromercuribenzoic acid]
Effect of inhibitors on the enzyme (in words) [2]: inhibited
D-Met [2, 7]: 1.8 mM
Residual activity [2, 7]: 112%
D-Met [2, 8]: 1.6 mM
Residual activity [2, 8]: 100%

Induction of the enzyme (in words) [3]: induced well
SMILES: N[C@H](Cc1ccccc1)C(=O)O [D-Phe, D-phenylalanine]
Activity [3]: 0.479 U/ml of broth
Specific activity [3]: 0.303 U/mg

SMILES: CCN1C(=O)C=CC1=O [N-ethyl-maleimide]
D-Met ([2]; inhibitor 1 mM): 1.7 mM
Residual activity ([2]; inhibitor 1 mM): 106%
D-Met ([2]; inhibitor 10 mM): 1.1 mM
Residual activity ([2]; inhibitor 10 mM): 69%

SMILES: [Cl-].[Cl-].[Mg+2] [MgCl2]
D-Met ([1]; metal salt 1 mM): 1.3 mM
Residual activity ([1]; metal salt 1 mM): 108%
D-Met ([1]; metal salt 10 mM): 1.2 mM
Residual activity ([1]; metal salt 10 mM): 100%

SMILES: CC[C@H](C)[C@H](N)C(=O)O (racemic) [DL-Ile, DL-isoleucine]
Activity [4]: 0.214 U/ml of broth
Specific activity [4]: 0.0799 U/mg

Relative activity [5]: 0%
SMILES: CC(=O)N[C@@H](CC(C)C)C(=O)O [N-Ac-L-Leu, N-acetyl-L-leucine]

SMILES: CC(C)C(N)C(=O)O (racemic) [DL-Valine, DL-valine]
Activity [4]: 0.239 U/ml of broth
Specific activity [4]: 0.0920 U/mg
Activity [6]: 0.429 U/ml of broth
Specific activity [6]: 0.133 U/mg

Relative activity [5]: 33%
SMILES: CC(=O)N[C@@H](C(=O)O)C(C)C [N-Ac-D-Val, N-acetyl-D-valine]

Relative activity [5]: 100%
SMILES: CC(=O)N[C@H](Cc1ccccc1)C(=O)O [N-Ac-D-Phe, N-acetyl-D-phenylalanine]

Induction of the enzyme (in words) [3]: induced well
SMILES: N[C@H](Cc1c[nH]c2ccccc12)C(=O)O [D-Trp, D-tryptophan]
Activity [3]: 0.913 U/ml of broth
Specific activity [3]: 0.537 U/mg

SMILES: NC(Cc1c[nH]cn1)C(=O)O (racemic) [DL-His, DL-histidine]
Activity [4]: 0.0144 U/ml of broth
Specific activity [4]: 0.0064 U/mg

Relative activity [5]: 64%
SMILES: CC(=O)N[C@H](Cc1c[nH]c2ccccc12)C(=O)O [N-Ac-D-Trp, N-acetyl-D-tryptophan]

SMILES: N[C@@H](Cc1ccccc1)C(=O)O [L-Phe, L-phenylalanine]
Activity [3]: 0.00973 U/ml of broth
Specific activity [3]: 0.0064 U/mg

SMILES: N[C@@H](Cc1c[nH]c2ccccc12)C(=O)O [L-Trp, L-tryptophan]
Activity [3]: 0.0243 U/ml of broth
Specific activity [3]: 0.0134 U/mg

SMILES: CC(=O)NC(C(=O)O)C(C)C (racemic) [N-Ac-DL-Valine, N-acetyl-DL-valine]
Activity [6]: 0.114 U/ml of broth
Specific activity [6]: 0.0341 U/mg

SMILES: O=C(O)CI [ICH2 COOH, iodoacetic acid]
Effect of inhibitors on the enzyme (in words) [2]: inhibited

SMILES: O=C(O)CN(CCN(CC(=O)O)CC(=O)O)CC(=O)O [EDTA]
D-Met [2]: 1.6 mM
Effect of inhibitors on the enzyme (in words) [2]: inhibited
Residual activity [2]: 100%

SMILES: O=C(O)CN(CCN(CC(=O)O)CC(=O)O)CC(=O)O [EDTA · 2Na]
D-Met [1]: 1.2 mM and 1.3 mM
Residual activity [1]: 108%

SMILES: [Cl][Fe][Cl] [FeCl2]
Effect of metal ions on the enzyme (in words) [1]: inhibited
D-Met ([1]; metal salt 1 mM): 0.24 mM
Residual activity ([1]; metal salt 1 mM): 20%
D-Met ([1]; metal salt 10 mM): 0.035 mM
Residual activity ([1]; metal salt 10 mM): 2.9%
